Measurements from ChEMBL document CHEMBL1201862, “PubChem BioAssay data set” (2004).
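Compound exposure: 48 hours, 5 concentrations, 96-well plates. Abbreviation: GI50, concentration required for 50% inhibition of growth.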 Calls of active or inactive are those of the source. Rule as the data show it: active = GI50 up to about 1.1 µM and inactive = higher.

Assays:
Assay in all cases: NCI anticancer screen, dose series, 48 h
786-0 = tested on: 786-0
A498 = tested on: A498
A549 = tested on: A549
ACHN = tested on: ACHN
BT-549 = tested on: BT-549
CAKI-1 = tested on: CAKI-1
CCRF-CEM = tested on: CCRF-CEM
COLO 205 = tested on: COLO 205
DU-145 = tested on: DU-145
EKVX = tested on: EKVX
HCC 2998 = tested on: HCC 2998
HCT-116 = tested on: HCT-116
HCT-15 = tested on: HCT-15
HL-60 = tested on: HL-60
HOP-62 = tested on: HOP-62
HOP-92 = tested on: HOP-92
HT-29 = tested on: HT-29
Hs-578T = tested on: Hs-578T
IGROV-1 = tested on: IGROV-1
K562 = tested on: K562
KM12 = tested on: KM12
LOX IMVI = tested on: LOX IMVI
M14 = tested on: M14
MCF7 = tested on: MCF7
MDA-MB-231 = tested on: MDA-MB-231
MDA-MB-435 = tested on: MDA-MB-435
MDA-N = tested on: MDA-N
MOLT-4 = tested on: MOLT-4
Malme-3M = tested on: Malme-3M
NCI-H226 = tested on: NCI-H226
NCI-H23 = tested on: NCI-H23
NCI-H460 = tested on: NCI-H460
NCI-H522 = tested on: NCI-H522
NCI/ADR-RES = tested on: NCI/ADR-RES
OVCAR-3 = tested on: OVCAR-3
OVCAR-4 = tested on: OVCAR-4
OVCAR-5 = tested on: OVCAR-5
OVCAR-8 = tested on: OVCAR-8
PC-3 = tested on: PC-3
RPMI-8226 = tested on: RPMI-8226
RXF 393 = tested on: RXF 393
SF-268 = tested on: SF-268
SF-295 = tested on: SF-295
SK-MEL-28 = tested on: SK-MEL-28
SK-MEL-2 = tested on: SK-MEL-2
SK-MEL-5 = tested on: SK-MEL-5
SK-OV-3 = tested on: SK-OV-3
SN12C = tested on: SN12C
SNB-19 = tested on: SNB-19
SNB-75 = tested on: SNB-75
SR = tested on: SR
SW-620 = tested on: SW-620
T47D = tested on: T47D
TK-10 = tested on: TK-10
U-251 = tested on: U-251
UACC-257 = tested on: UACC-257
UACC-62 = tested on: UACC-62
UO-31 = tested on: UO-31
SF-539 = tested on: SF-539

Measured: GI50

C[N+]1=C2[B-](C(C)(C)C)=[N+](C(C)(C)C)[B-]2(C(C)(C)C)[N+](C)=C2[B-](C(C)(C)C)=[N+](C(C)(C)C)[B-]21C(C)(C)C (centres undefined)
> 100 µM: HCT-15
inactive: 786-0 > 100 µM | A498 > 100 µM | A549 > 100 µM | ACHN > 100 µM | BT-549 > 100 µM | CAKI-1 > 100 µM | CCRF-CEM > 100 µM | COLO 205 > 100 µM | DU-145 > 100 µM | EKVX > 100 µM | HCC 2998 > 100 µM | HCT-116 > 100 µM | HL-60 > 100 µM | HOP-62 > 100 µM | HOP-92 > 100 µM | HT-29 > 100 µM | Hs-578T > 100 µM | IGROV-1 > 100 µM | K562 > 100 µM | KM12 > 100 µM | LOX IMVI > 100 µM | M14 > 100 µM | MCF7 59.4 µM | MDA-MB-231 > 100 µM | MDA-MB-435 > 100 µM | MDA-N > 100 µM | MOLT-4 > 100 µM | Malme-3M > 100 µM | NCI-H226 > 100 µM | NCI-H23 > 100 µM | NCI-H460 > 100 µM | NCI-H522 > 100 µM | NCI/ADR-RES > 100 µM | OVCAR-3 > 100 µM | OVCAR-4 > 100 µM | OVCAR-5 > 100 µM | OVCAR-8 > 100 µM | PC-3 > 100 µM | RPMI-8226 > 100 µM | RXF 393 > 100 µM | SF-268 > 100 µM | SF-295 61.9 µM | SK-MEL-28 > 100 µM | SK-MEL-2 > 100 µM | SK-MEL-5 > 100 µM | SK-OV-3 > 100 µM | SN12C > 100 µM | SNB-19 > 100 µM | SNB-75 > 100 µM | SR > 100 µM | SW-620 > 100 µM | T47D > 100 µM | TK-10 > 100 µM | U-251 > 100 µM | UACC-257 > 100 µM | UACC-62 > 100 µM | UO-31 > 100 µM

CCOC(=O)C1(C(N)=O)C(=O)c2ccncc2C1=O (centres undefined)
inactive: 786-0 > 100 µM | A498 > 100 µM | A549 > 100 µM | ACHN > 100 µM | BT-549 > 100 µM | CAKI-1 > 100 µM | CCRF-CEM > 100 µM | COLO 205 > 100 µM | DU-145 > 100 µM | EKVX > 100 µM | HCC 2998 > 100 µM | HCT-116 > 100 µM | HL-60 > 100 µM | HOP-92 > 100 µM | HT-29 > 100 µM | Hs-578T > 100 µM | IGROV-1 > 100 µM | K562 > 100 µM | KM12 > 100 µM | LOX IMVI > 100 µM | M14 > 100 µM | MCF7 > 100 µM | MDA-MB-231 > 100 µM | MDA-MB-435 > 100 µM | MDA-N > 100 µM | Malme-3M > 100 µM | NCI-H226 > 100 µM | NCI-H23 > 100 µM | NCI-H460 > 100 µM | NCI-H522 > 100 µM | NCI/ADR-RES > 100 µM | OVCAR-3 > 100 µM | OVCAR-4 > 100 µM | OVCAR-5 > 100 µM | OVCAR-8 > 100 µM | PC-3 > 100 µM | RPMI-8226 > 100 µM | RXF 393 > 100 µM | SF-268 > 100 µM | SF-295 > 100 µM | SF-539 > 100 µM | SK-MEL-28 > 100 µM | SK-MEL-2 > 100 µM | SK-MEL-5 > 100 µM | SK-OV-3 > 100 µM | SN12C > 100 µM | SNB-19 > 100 µM | SNB-75 > 100 µM | SR > 100 µM | SW-620 > 100 µM | T47D > 100 µM | U-251 > 100 µM | UACC-257 > 100 µM | UACC-62 > 100 µM | UO-31 > 100 µM
> 100 µM: HCT-15
